One data set has as its target T1, Gal4DBD/AaEcR (DEF) (Aedes aegypti, UniProt P49880).
T1 construct: The wildtype D, E, and F domains from mosquito Aedes aegypti EcR; expressed in transfected cells; host or cells: 3T3 cells
The data set can be described thus: cell-based. In kind it is cell-based. The note with it: for fold induction at 33 µM: NIH3T3, read-out: Fold Induction Average, AA_3T3V1 Assay 33 μM; for Fold Induction Average, AA_3T3V1 Assay 33 μM: 3T3 cells, 48 h, average of two wells. Put shortly: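 Single-dose ligand testing at 33 μM, applied in serum medium after 4 h transfection. Host was 3T3 cells carrying Gal4DBD/AaEcR (DEF) plus a 5× GAL4 RE-driven firefly luciferase reporter (pFRLuc).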

The next data set concerns the target T2, DmEcR + LmUSP (Drosophila melanogaster, UniProt P34021).
T2 sequence (P34021 342-878): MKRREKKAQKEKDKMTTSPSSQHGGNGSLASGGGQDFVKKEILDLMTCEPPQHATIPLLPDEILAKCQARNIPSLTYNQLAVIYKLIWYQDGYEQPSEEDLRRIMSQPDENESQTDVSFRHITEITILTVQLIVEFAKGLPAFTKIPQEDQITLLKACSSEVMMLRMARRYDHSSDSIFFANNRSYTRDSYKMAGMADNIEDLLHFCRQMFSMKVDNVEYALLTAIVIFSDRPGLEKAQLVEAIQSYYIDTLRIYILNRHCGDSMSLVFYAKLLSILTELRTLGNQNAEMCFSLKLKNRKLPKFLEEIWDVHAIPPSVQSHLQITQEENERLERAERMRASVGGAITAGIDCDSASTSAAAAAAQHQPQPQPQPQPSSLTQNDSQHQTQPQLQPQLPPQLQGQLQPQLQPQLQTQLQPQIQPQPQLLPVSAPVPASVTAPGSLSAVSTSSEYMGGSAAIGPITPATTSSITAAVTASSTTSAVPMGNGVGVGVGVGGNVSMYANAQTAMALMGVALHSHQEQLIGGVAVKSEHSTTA
In words: cell-based. The note with it: for fold induction at 10 µM: NIH3T3, read-out: Fold Induction (10 μM); for fold induction at 100 µM: NIH3T3, read-out: Fold Induction (100 μM).

In data set [1] the target is T3, Bombyx mori EcR (VP16-BmEcR, CVBE) (Bombyx mori, UniProt P49881).
T3 construct: expressed in transfected cells
T3 sequence (P49881 86-606): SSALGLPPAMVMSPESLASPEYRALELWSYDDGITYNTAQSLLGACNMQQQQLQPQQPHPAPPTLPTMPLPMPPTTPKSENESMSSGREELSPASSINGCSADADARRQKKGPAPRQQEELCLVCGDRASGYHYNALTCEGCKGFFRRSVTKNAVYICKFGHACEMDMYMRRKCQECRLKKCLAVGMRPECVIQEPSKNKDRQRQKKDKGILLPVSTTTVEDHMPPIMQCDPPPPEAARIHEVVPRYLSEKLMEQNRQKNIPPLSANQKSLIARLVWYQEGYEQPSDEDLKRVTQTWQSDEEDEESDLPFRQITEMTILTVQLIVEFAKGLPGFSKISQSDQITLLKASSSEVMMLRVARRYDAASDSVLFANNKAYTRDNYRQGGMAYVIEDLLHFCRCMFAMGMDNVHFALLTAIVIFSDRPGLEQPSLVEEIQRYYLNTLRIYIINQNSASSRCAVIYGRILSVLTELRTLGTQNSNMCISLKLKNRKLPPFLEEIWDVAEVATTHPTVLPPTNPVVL
The data set can be described thus: Z3 assay (HEK-293 clone Z3 with CVBE and 6x EcRE LacZ, β-galactosidase reporter). The data set is classed as cell-based. The note with it: average of two wells; for fold induction at 33 µM: HEK293, 48 h, read-out: Fold Induction Average, Z3V1 Assay 33 μM; for Fold Induction Average, Z3V1 Assay 33 μM: 48 h.

Another data set has as its system CfEcR + LmUSP. The note with it: CfEcR + LmUSP in 3T3 cells, reporter assayed 48 h after ligand.
For data set [2], the target named is T4, GAL4AaEcR-DEF/VP16HsRXRβ-EF (Aedes aegypti, UniProt P49880).
T4 construct: expressed in transfected cells; host or cells: mouse NIH3T3 cells
T4 sequence (P49880 405-776 limits assumed): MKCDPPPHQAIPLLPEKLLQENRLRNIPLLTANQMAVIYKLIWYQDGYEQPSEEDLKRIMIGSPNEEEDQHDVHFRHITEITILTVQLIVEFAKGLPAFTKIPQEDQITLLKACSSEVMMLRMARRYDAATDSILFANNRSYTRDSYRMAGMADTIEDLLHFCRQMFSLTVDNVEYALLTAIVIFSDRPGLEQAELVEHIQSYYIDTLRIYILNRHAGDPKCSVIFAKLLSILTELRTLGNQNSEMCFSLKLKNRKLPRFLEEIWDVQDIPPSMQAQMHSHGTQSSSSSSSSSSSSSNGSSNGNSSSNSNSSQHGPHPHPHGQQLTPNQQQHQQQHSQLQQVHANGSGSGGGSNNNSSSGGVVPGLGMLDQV
T4 sequence (P28702 299-533 partner limits assumed): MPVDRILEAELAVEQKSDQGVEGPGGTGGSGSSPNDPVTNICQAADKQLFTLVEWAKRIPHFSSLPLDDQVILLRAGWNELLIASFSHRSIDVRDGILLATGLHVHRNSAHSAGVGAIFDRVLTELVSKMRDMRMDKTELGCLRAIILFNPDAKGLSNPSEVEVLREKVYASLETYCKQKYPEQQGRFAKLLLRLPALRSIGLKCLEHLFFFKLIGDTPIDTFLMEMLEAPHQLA
In words: Transactivation reporter assay, AaEcR based switch (1.4) in NIH3T3 cells. In kind it is cell-based. Conditions: mammalian cells; FIGS. 2-5. On the procedure: Total relative light units (RLU) are shown.
Twenty μl of lysate were assayed.
On the technique in general: In a reporter assay the amount or activity of a reporter protein is the signal.

Data set [3] relates to GAL4 DBD-CfEcR(DEF)/VP16AD-MmRXRE. The note with it: CHO 13B3 clone, 48 h, average of two wells. The text has this: GAL4 DBD-CfEcR(DEF)/VP16AD-MmRXRE: The wild-type D, E, and F domains from spruce budworm Choristoneura fumiferana EcR (“CfEcR-DEF”; SEQ ID NO: 1) were fused to a GAL4 DNA binding domain (“Gal4DBD1-147”; nucleotides 31 to 471 of SEQ ID NO: 2) and placed under the control of the SV40e promoter of pM vector (PT3119-5, Clontech, Palo Alto, Calif.). The D and E domains from Mus Musculus RXR (“MmRXR-DE”; SEQ ID NO: 22) were fused to the transactivation domain from VP16 (“VP16AD”; SEQ ID NO: 5) and placed under the control of the SV40e promoter of the pVP16 vector (PT3127-5, Clontech, Palo Alto, Calif.).
CHO cells were transiently transfected with transcription cassettes for GAL4 DBD-CfEcR(DEF) and for VP16AD-MmRXRE controlled by SV40e promoters. Stably transfected cells were selected using Hygromycin. Individually isolated CHO cell clones were transiently transfected with a GAL4 RE-luciferase reporter (pFR-Luc, Stratagene, La Jolla, Calif.). The 13B3 clone was selected using Zeocin.
Cells were trypsinized and diluted to a concentration of 2.5×10^4 cells mL. 100 μL of cell suspension was placed in each well of a 96 well plate and incubated at 37° C. under 5% CO2 for 24 h. Ligand stock solutions were prepared in DMSO and diluted 300 fold for all treatments.
(§1) Luciferase reporter gene expression was measured 48 h after cell treatment using Bright-Glo™ Luciferase Assay System from Promega (E2650). Luminescence was detected at room temperature using a Dynex MLX microtiter plate luminometer.
(§2) Each assay was conducted in two separate wells, and the two values were averaged. Fold inductions were calculated by dividing relative light units (“RLU”) in ligand treated cells with RLU in DMSO treated cells.

In data set [4] the test system is GAL4 DBD (1-147)-CfEcR(DEF)/VP16AD-βRXREF-LmUSPEF. The note with it: CHO 27-63 clone, 48 h, average of two wells.
Source text: GAL4 DBD (1-147)-CfEcR(DEF)/VP16AD-βRXREF-LmUSPEF: The wild-type D, E, and F domains from spruce budworm Choristoneura fumiferana EcR (“CfEcR-DEF”; SEQ ID NO: 1) were fused to a GAL4 DNA binding domain (“Gal4DBD1-147”; nucleotides 31 to 471 of SEQ ID NO: 2) and placed under the control of a phosphoglycerate kinase promoter (“PGK”; SEQ ID NO: 19). Helices 1 through 8 of the EF domains from Homo sapiens RXRβ and helices 9 through 12 of the EF domains of Locusta migratoria Ultraspiracle Protein (“HsRXRβ-EF-LmUSP-EF”; SEQ ID NO: 4) were fused to the transactivation domain from VP16 (“VP16AD”; SEQ ID NO: 5) and placed under the control of an elongation factor-1α promoter (“EF-1α”; SEQ ID NO: 20). Five consensus GAL4 response element binding sites (“5× GAL4RE”; comprising 5 copies of a GAL4RE comprising SEQ ID NO: 7) were fused to a synthetic TATA minimal promoter (SEQ ID NO: 21) and placed upstream of the luciferase reporter gene (SEQ ID NO: 9).
CHO cells were transiently transfected with transcription cassettes for GAL4 DBD (1-147) CfEcR(DEF) and for VP16AD βRXREF-LmUSPEF controlled by ubiquitously active cellular promoters (PGK and EF-1α, respectively) on a single plasmid. Stably transfected cells were selected by Zeocin resistance. Individually isolated CHO cell clones were transiently transfected with a GAL4 RE-luciferase reporter (pFR Luc). 27-63 clone was selected using Hygromycin.
Cells were trypsinized and diluted to a concentration of 2.5×10^4 cells mL. 100 μL of cell suspension was placed in each well of a 96 well plate and incubated at 37° C. under 5% CO2 for 24 h. Ligand stock solutions were prepared in DMSO and diluted 300 fold for all treatments. Dose response testing consisted of 8 concentrations ranging from 33 μM to 0.01 μM.
as §1, §2

Description for CfEcR + LmUSP: 1.9—Gal4CfEcR-DEF/VP16LmRXR-EF: This construct was prepared in the same way as switch 1.1 except LmRXR-EF (SEQ ID NO: 18) was used in place of HsRXRβ-LmRXREF chimera.
(§3) To determine if any of the compounds shown in Table 1 and Table 2 can act as inducers of reporter gene activity in a transactivation assay, these compounds were tested in NIH3T3 cells transfected with pFRLUC reporter and gene expression cassettes, 1.1 to 1.8 described in Example 1. […] At 48 hr after adding ligand, the cells were harvested and reporter activity was assayed using Dual Luciferase assay kit (Promega carporation). Total relative light units (RLU) are shown. Standard methods for culture and maintenance of the cells were followed.
(§4) Transfections: DNAs corresponding to the various switch constructs outlined in Example I, specifically switches 1.1 through 1.8, were transfected into mouse NIH3T3 cells (ATCC) as follows. Cells were harvested when they reached 50% confluency and plated in 6-, 12- or 24-well plates at 125,000, 50,000, or 25,000 cells, respectively, in 2.5, 1.0, or 0.5 ml of growth medium containing 10% fetal bovine serum (FBS), respectively. The next day, the cells were rinsed with growth medium and transfected for four hours. […] For 12-well plates, 4 μl of Superfect™ was mixed with 100 μl of growth medium. 1.0 μg of reporter construct and 0.25 μg of each receptor construct of the receptor pair to be analyzed were added to the transfection mix. A second reporter construct was added [pTKRL (Promega), 0.1 μg/transfection mix] that comprises a Renilla luciferase gene operably linked and placed under the control of a thymidine kinase (TK) constitutive promoter and was used for normalization. The contents of the transfection mix were mixed in a vortex mixer and let stand at room temperature for 30 min. At the end of incubation, the transfection mix was added to the cells maintained in 400 μl growth medium. The cells were maintained at 37° C. and 5% CO2 for four hours. At the end of incubation, 500 μl of growth medium containing 20% FBS and either dimethylsulfoxide (DMSO; control) or a DMSO solution of 0.1, 1, and 10 μM ligand was added and the cells were maintained at 37° C. and 5% CO2 for 48 hours. The cells were harvested and reporter activity was assayed. The same procedure was followed for 6 and 24 well plates as well except all the reagents were doubled for 6 well plates and reduced to half for 24-well plates.
(§5) Ligands: All ligands were dissolved in DMSO and the final concentration of DMSO was maintained at 0.1% in both controls and treatments.
(§6) Reporter Assays: Cells were harvested 48 hours after adding ligands. 125, 250, or 500 μl of passive lysis buffer (part of Dual-luciferase™ reporter assay system from Promega Corporation) were added to each well of 24- or 12- or 6-well plates respectively. The plates were placed on a rotary shaker for 15 minutes. Twenty μl of lysate were assayed. Luciferase activity was measured using Dual-luciferase™ reporter assay system from Promega Corporation following the manufacturer's instructions.
Description for DmEcR + LmUSP: as §3, §4, §5, §6

Consider `C[C@H]1C[C@H](Nc2ccc(F)cc2)c2cc(F)ccc2N1C(=O)c1ccc(F)c(Cl)c1` (relative stereo) [Compound I-6, trans-1-(3-chloro-4-fluorobenzoyl)-6-fluoro-2-methyl-4-(4-fluoroanilino)-1,2,3,4-tetrahydroquinoline], for which the fold induction at 33 µM at Gal4DBD/AaEcR (DEF) worked out at 86. Further, on DmEcR + LmUSP, the fold induction at 10 µM worked out at 2 and the fold induction at 100 µM is 4. Besides, the fold induction at 33 µM in data set [1] amounted to 1. Besides, the “Fold Induction (10 μM)” value with CfEcR + LmUSP is on record as 2 fold.
Taken in the same sequence, the figures for `C[C@@H]1C[C@H](Nc2ccc(F)cc2)c2cc(F)ccc2N1C(=O)c1ccc(F)c(Cl)c1` (relative stereo) [Compound I-7, cis-1-(3-chloro-4-fluorobenzoyl)-6-fluoro-2-methyl-4-(4-fluoroanilino)-1,2,3,4-tetrahydroquinoline] were 357, 14, 8, 32 and 94 fold.
For `Cc1ccc(C(=O)N2c3ccc(F)cc3[C@@H](Nc3ccc(F)cc3)C[C@@H]2C)cc1F` (relative stereo) [Compound I-12], on Gal4DBD/AaEcR (DEF), the “Fold Induction Average, AA_3T3V1 Assay 33 μM” value came to 504 fold. Besides, in data set [2], the “Activity on AaEcR based switches” value is given as “very active”. Moreover, the “Fold Induction Average, 13B3V1 Assay 33 μM” value in data set [3] is 815 fold. Moreover, the “Fold Induction Average, Z3V1 Assay 33 μM” value in data set [1] is listed as 169 fold.
On the same counts, the results for `Cc1cc(C(=O)N2c3ccc(F)cc3[C@@H](Nc3ccc(F)cc3)C[C@@H]2C)ccc1F` (relative stereo) [Compound I-13] are 189 fold, “very active”, 4 fold and 105 fold.
Taken in the same sequence, the figures for `Cc1ccc(C(=O)N2c3ccc(F)cc3[C@H](Nc3ccc(F)cc3)C[C@@H]2C)cc1F` (relative stereo) [Compound I-14] were 518 fold, “very active”, 2 fold and 7 fold.
With `CC1CC(Nc2ccccc2)c2ccccc2N1C(=O)c1ccno1` (centres unmarked) [Compound I-104], the “Fold Induction Average, AA_3T3V1 Assay 33 μM” value on Gal4DBD/AaEcR (DEF) is 347 fold. Also, the “Fold Induction Average, 27-63V1 Assay 33 μM” value in data set [4] stood at 1 fold. Besides, in data set [1], the “Fold Induction Average, Z3V1 Assay 33 μM” value was found to be 1 fold.
For the compound `COc1ccc(C(=O)N2c3c(C)cccc3C(Nc3ccccc3C)CC2C)cc1` (centres unmarked) [Compound I-135], the “Fold Induction Average, AA_3T3V1 Assay 33 μM” value on Gal4DBD/AaEcR (DEF) was found to be 1 fold. In data set [4], the “Fold Induction Average, 27-63V1 Assay 33 μM” value stood at 3 fold. Besides, the “Fold Induction Average, 13B3V1 Assay 33 μM” value in data set [3] was found to be 1 fold. Besides, the “Fold Induction Average, Z3V1 Assay 33 μM” value in data set [1] stood at 1 fold.

Values taken from US20050228016A1, “TETRAHYDROQUINOLINES FOR MODULATING THE EXPRESSION OF EXOGENOUS GENES VIA AN ECDYSONE RECEPTOR COMPLEX” (priority 2002, published 2005).
